Measurements reported in patent US8680010B2, “Synergistic herbicidal composition containing penoxsulam and florasulam” (Dow AgroSciences, LLC., priority 2011, dated 2014).

Assays:
Type in all cases: in vivo
[1] = test system: chamomile, mayweed (Anthemis cotula L.); experiment: Field weed control by penoxsulam plus florasulam, ANTCO; conditions: 30-45 DAA
Method: (§1) Field trials were conducted in olive tree crops in Spain using standard herbicide small plot research methodology. Plot size was typical for small plot research in tree crops, varying from 4 to 10 meters (m) wide by 4 to 10 m long. […] Soil types ranged from coarse to medium to fine soil texture. Perennial olive crops were transplanted by hand into orchards as per normal local cultural practices. The olive crop was grown using normal cultural practices for fertilization, watering and maintenance to ensure good growth of the crop and the weeds.
(§2) Treatments were applied by backpack sprayer using either compressed air or CO2, at spray pressures at 300 kilopascals (kPa). Spray tips were typically Flat Fan Teejet nozzles, such as FanJet 120 or Teejet 11003 VP. Spray volumes were approximately 300 liters per hectare (L/ha). The weed spectrum included, but was not limited to, chamomile, (Anthemis cotula L., […]), field marigold (Calendula arvensis, CLDAR), henbit (Lamium amplexicaule L, LAMAM), annual sowthistle (Sonchus oleraceus L., SONOL), common mallow (Malva neglecta Wallr., MALNE), corn salad (Valerianella echinata, VLLEC), horseweed (Conyza canadensis (L.) Cronq., ERICA), field madder (Sherardia arvensis L., SHRAR), and sowthistle (Sonchus species, SONSS). Treatments were applied preemergence or early postemergence to the stage of the weeds. Olive tree spacings were typically rows that were 7 to 8 m apart, and trees in the row were from 4 to 6 m apart.
(§3) For each treatment, the appropriate formulated product amount to treat the plot area, to achieve the desired application rate, based on unit area of application (hectare), was calculated, measured, and mixed in water prior to applying with the backpack sprayer
(§4) Treatments were rated as compared to the untreated control plots.
(§5) The treated plots and control plots were rated blind at various intervals after application. Ratings were based of Percent (%) Visual weed control, where 0 corresponds to no injury and 100 corresponds to complete kill.
(§6) The following equation was used to calculate the expected activity of mixtures containing two active ingredients, A and B: Expected=A+B−(A×B/100)
(§7) A=observed efficacy of active ingredient A at the same concentration as used in the mixture;
(§8) B=observed efficacy of active ingredient B at the same concentration as used in the mixture.

[2] = test system: field marigold (Calendula arvensis); experiment: Field weed control by penoxsulam plus florasulam, CLDAR; conditions: 30-45 DAA
Method: as §1
(§9) Treatments were applied by backpack sprayer using either compressed air or CO2, at spray pressures at 300 kilopascals (kPa). Spray tips were typically Flat Fan Teejet nozzles, such as FanJet 120 or Teejet 11003 VP. Spray volumes were approximately 300 liters per hectare (L/ha). […]
(§10) For each treatment, the appropriate formulated product amount to treat the plot area, to achieve the desired application rate, based on unit area of application (hectare), was calculated, measured, and mixed in water prior to applying with the backpack sprayer […]

[3] = test system: henbit (Lamium amplexicaule L.); experiment: Field weed control by penoxsulam plus florasulam, LAMAM; conditions: 30-45 DAA
Method: as §1, §2, §3, §4, §5, §6, §7, §8

[4] = test system: annual sowthistle (Sonchus oleraceus L.); experiment: Field weed control by penoxsulam plus florasulam, SONOL; conditions: 30-45 DAA
Method: as §1, §2, §3, §4, §5, §6, §7, §8

[5] = test system: common mallow (Malva neglecta Wallr.); experiment: Field weed control by penoxsulam plus florasulam, MALNE; conditions: 90 DAA
Method: as §1, §9, §10

[6] = test system: corn salad (Valerianella echinata); experiment: Field weed control by penoxsulam plus florasulam, VLLEC; conditions: 90 DAA
Method: as §1, §2, §3, §4, §5, §6, §7, §8

[7] = test system: horseweed (Conyza canadensis (L.) Cronq.); experiment: Field weed control by penoxsulam plus florasulam, ERICA; conditions: 99-175 DAA
Method: as §1, §9, §10

[8] = test system: field madder (Sherardia arvensis L.); experiment: Field weed control by penoxsulam plus florasulam, SHRAR; conditions: 99-175 DAA
Method: as §1, §9, §10

[9] = test system: sowthistle (Sonchus species); experiment: Field weed control by penoxsulam plus florasulam, SONSS; conditions: 99-175 DAA
Method: as §1, §9, §10

In the case of COc1ncc(F)c2nc(S(=O)(=O)Nc3c(F)cccc3F)nn12 [Florasulam, N-(2,6-difluorophenyl)-8-fluoro-5-methoxy[1,2,4]-triazolo[1,5-c]pyrimidine-2-sulfonamide], the “% Control ANTCO Obs” value ([1]; florasulam 5 gai/ha) is reported as 50%, the “% Control ANTCO Obs” value ([1]; florasulam 6.3 gai/ha) is reported as 69% and the “% Control ANTCO Obs” value ([1]; florasulam 7.5 gai/ha) is reported as 95%. The “% Control CLDAR Obs” value ([2]; florasulam 5 gai/ha) was 40%, the “% Control LAMAM Obs” value ([3]; florasulam 5 gai/ha) was 5% and the “% Control LAMAM Obs” value ([3]; florasulam 6.3 gai/ha) was 30%. The “% Control LAMAM Obs” value ([3]; florasulam 7.5 gai/ha) was 30%, the “% Control SONOL Obs” value ([4]; florasulam 5 gai/ha) was 50% and the “% Control SONOL Obs” value ([4]; florasulam 6.3 gai/ha) was 60%. The “% Control SONOL Obs” value ([4]; florasulam 7.5 gai/ha) was 60%, the “% Control MALNE Obs” value ([5]; florasulam 5 gai/ha) was 50% and the “% Control VLLEC Obs” value ([6]; florasulam 5 gai/ha) was 10%. The “% Control VLLEC Obs” value ([6]; florasulam 6.3 gai/ha) was 10%, the “% Control ERICA Obs” value ([7]; florasulam 7.5 gai/ha) was 51% and the “% Control SHRAR Obs” value ([8]; florasulam 7.5 gai/ha) was 0%. The “% Control SONSS Obs” value ([9]; florasulam 7.5 gai/ha) was 8%.
COc1cnc(OC)n2nc(NS(=O)(=O)c3c(OCC(F)F)cccc3C(F)(F)F)nc12 [Penoxsulam] was tested, and the “% Control ANTCO Obs” value ([1]; penoxsulam 10 gai/ha) was 0%, the “% Control ANTCO Obs” value ([1]; penoxsulam 13 gai/ha) was 5% and the “% Control ANTCO Obs” value ([1]; penoxsulam 15 gai/ha) was 5%. For the same compound, the “% Control CLDAR Obs” value ([2]; penoxsulam 10 gai/ha) was 5%, the “% Control LAMAM Obs” value ([3]; penoxsulam 10 gai/ha) was 0% and the “% Control LAMAM Obs” value ([3]; penoxsulam 13 gai/ha) was 0%. For the same compound, the “% Control LAMAM Obs” value ([3]; penoxsulam 15 gai/ha) was 4%, the “% Control SONOL Obs” value ([4]; penoxsulam 10 gai/ha) was 0% and the “% Control SONOL Obs” value ([4]; penoxsulam 13 gai/ha) was 2%. For the same compound, the “% Control SONOL Obs” value ([4]; penoxsulam 15 gai/ha) was 5%, the “% Control MALNE Obs” value ([5]; penoxsulam 10 gai/ha) was 8% and the “% Control VLLEC Obs” value ([6]; penoxsulam 10 gai/ha) was 80%. For the same compound, the “% Control VLLEC Obs” value ([6]; penoxsulam 13 gai/ha) was 80%, the “% Control ERICA Obs” value ([7]; penoxsulam 20 gai/ha) was 23% and the “% Control SHRAR Obs” value ([8]; penoxsulam 20 gai/ha) was 0%. The “% Control SONSS Obs” value ([9]; penoxsulam 20 gai/ha) was 53%.
